These results are taken from article PMC7067850, “Identification of highly potent and selective inhibitor, TIPTP, of the p22phox-Rubicon axis as a therapeutic agent for rheumatoid arthritis” (Scientific Reports, 2020).

Assay [1] deals with T1, p22phox–Rubicon interaction (Homo sapiens, UniProt P13498).
T1 construct: The plasmid encoding full-length of the p22phox (V5-p22phox) and Rubicon (Flag-Rubicon) were previously described; expressed in transfected cells; host or cells: HEK293T (293T) cells, transient co-transfection
T1 sequence (P13498 1-195): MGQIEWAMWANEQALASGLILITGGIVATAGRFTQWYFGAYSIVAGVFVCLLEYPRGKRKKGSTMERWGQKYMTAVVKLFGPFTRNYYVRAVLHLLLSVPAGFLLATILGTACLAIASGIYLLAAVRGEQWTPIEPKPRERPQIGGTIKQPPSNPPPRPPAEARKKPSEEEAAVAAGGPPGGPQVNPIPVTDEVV
The assay can be described thus: p22phox–Rubicon interaction, co-IP in 293T cells co-transfected with V5-p22phox and Flag-Rubicon. The following applies: inhibition of p22phox–Rubicon interaction, compounds 0.01-20 μM for 24 h (Supplemental Fig. 5a). The format is cell-based. On the procedure: Immunoblot and immunoprecipitation assays were performed as described previously[18],[23]. For immunoprecipitation, cells were harvested and then lysed in NP-40 buffer supplemented with a complete protease inhibitor cocktail (Roche). After pre-clearing with protein A/G agarose beads (GE Healthcare Life Science) for 1 h at 4 °C, whole-cell lysates were used for immunoprecipitation with the indicated antibodies. Generally, 1–4 μg of commercial antibody was added to 1 ml of cell lysates and incubated at 4 °C for 8 to 12 h. After the addition of protein A/G agarose beads for 6 h, immunoprecipitants were extensively washed with lysis buffer and eluted with SDS loading buffer by boiling for 5 min.
For immunoblotting, polypeptides were resolved by SDS-polyacrylamide gel electrophoresis and transferred to a PVDF membrane (Bio-Rad). […] Antibody binding was visualized by chemiluminescence (ECL; Millipore) and detected by a Vilber chemiluminescence analyzer (Fusion SL 3; Vilber Lourmat).
(a) 293T cells were co-transfected with V5-p22phox and Flag-Rubicon. 12 h post transfection, cells were treated with compound 1 or 2 (0.01, 0.1, 1, 5, 10, 20 μM) for 24 h, and subjected to IP with αFlag, followed by IB with αV5. WCLs were used for IB with αFlag, αV5, or αActin. […]

The test system of a further assay is human monocytes. The assay can be described thus: LPS-primed, ATP-activated human monocytes (co-IP, ELISA, immunoblot). The assay is classed as cell-based. On the procedure: The mouse macrophage cell line RAW264.7 (ATCC TIB-71; American Type Culture Collection) and HEK293T (ATCC-11268) cells were maintained in DMEM (Invitrogen) containing 10% FBS (Invitrogen), sodium pyruvate, nonessential amino acids, penicillin G (100 IU/ml), and streptomycin (100 μg/ml). Transient transfections were performed with Lipofectamine 3000 (Invitrogen), or calcium phosphate (Clontech), according to the manufacturer’s instructions. Raw264.7 stable cell lines were generated using a standard selection protocol with 2 μg/ml of puromycin. Mouse primary bone marrow derived-macrophages (BMDMs) were isolated from C57BL/6 mice and cultured in DMEM for 3–5 days in the presence of 25 ng/ml recombinant macrophage colony stimulating factor (R&D Systems, 416-ML, Minneapolis, MN, USA), as described previously. Human adherent monocytes were prepared from PBMCs donated by healthy subjects, as described previously. […]
Cell culture supernatants, mice sera and synovial fluid were analyzed for cytokine content using the BD OptEIA ELISA set (BD Pharmingen) for the detection of TNF-α, IL-6, IL-1β, and IL-18. […]
Figure 6 TIPTP is active for cells from healthy humans or patients with RA. […] (b) Culture supernatants were harvested and analyzed for cytokines by ELISA (left). […] (e) Culture supernatants were harvested and analyzed for cytokines by ELISA (left). […]
(ELISA stands for enzyme-linked immunosorbent assay.)

The IC50 is the midpoint of a concentration-inhibition curve. Higher therefore signals weaker potency.

As for `C[C@@H](Oc1cccc(-n2cc3c(n2)CCCC3)c1)C(=O)Nc1nnc(C(F)(F)F)s1` [TIPTP, (R)-2-(3-(4,5,6,7-tetrahydro-2H-indazol-2-yl)phenoxy)-N-(5-(trifluoromethyl)-1,3,4-thiadiazol-2-yl)propanamide], inhibition in assay [1] was half-maximal at 100 nM (IC50). For the same compound, the “IL-1β and IL-18 cytokines, caspase-1 activation, IL-1β and IL-18 maturation” value in the assay with human monocytes (human blood-derived monocytes, LPS/ATP, dose-dependent (Fig. 6b)) is recorded as “inhibited”. In addition, the “p22phox–Rubicon interaction” value with human monocytes (normal human monocytes, LPS/ATP, 0.01, 0.1, 1 μM, dose-dependent (Fig. 6a)) is “inhibited”.
